Patent US9370503B1, “Compounds for treating ocular diseases” (priority 2015, dated 2016)

Columns and labels:
HUVECs = experiment: NaN3-induced injury in HUVECs (MTT); assay type: cell-based, human; settings: 72 hours
Method: ARPE-19 cells were grown in DMEM/F12 medium supplemented with 10% FBS, 100 units/ml penicillin G, and 100 μg/ml streptomycin sulfate. HUVECs were grown in vascular cell basal medium supplemented with endothelial cell growth kit. Cells were incubated in a humidified incubator at 37° C. under 5% CO2 and 95% air.
MTT assay was used to measure the viability of ARPE-19 cells and HUVECs. 2×10^5 ARPE-19 cells or 5×10^4 HUVECs were seeded in 96-well plates (100 μl/well) and allowed to grow overnight. Negative control was prepared by adding 100 μl medium without cells. The cells were then treated with fresh medium with a compound of Formula (II) (“(II)”) (0.03, 0.1, 0.3, 1, 3 and 10 μg/ml) and/or oxidants (NaIO3, H2O2, t-BHP and NaN3) for 12, 24, or 72 hours (200 μl/well). The vehicle control group was treated with vehicle. 20 μl MTT (5 mg/ml) was added to wells, and incubated for another 4 h. After incubation, the medium was discarded and 100 μl DMSO was added to solubilize formazan produced from MTT by the viable cells. Absorbance was measured at 570 nm using a microplate reader (Bio-Rad Laboratories, Inc., CA). Cells viability was calculated according to the following formula: Viability of cells (%)=(absorbance in tested sample−absorbance in negative control)/(absorbance in vehicle control−absorbance in negative control)×100%.

[1] = tested on: Ocular Hypertensive Rabbit; experiment: Ocular blood flow in ocular hypertensive rabbit (colored microspheres); assay type: in vivo; settings: 1% topical instillation, 30 minutes after drug instillation
Method: 0.5% alcaine was purchased commercially. A 20% sterilized hypertonic saline solution was prepared in the laboratory. Colored microspheres were purchased from E-Z Trac (Los Angeles, Calif.). The colored microspheres were diluted with saline containing 0.01% (v/v) of Tween 80 to prevent the microspheres from sticking together. Two million microspheres in 0.4 ml were injected at each time point.
Female New Zealand white rabbits weighing 2.-3.0 kg, were purchased commercially. Animal care and treatment were followed by the institutional guidelines.
Rabbits were anesthetized with 35 mg/kg ketamine and 5 mg/kg xylazine by intramuscular injection. Half of the initial dose was given every one hour thereafter. The left ventricle was cannulated through the right carotid artery for injection of colored microspheres and the femoral artery was cannulated for collection of blood samples. The left eye was treated with one drop of proparacaine hydrochloride ophthalmic solution (Bausch & Lomb, Inc., Tampa, Fla., USA). The needle was inserted directly into the anterior chamber of the left eye, which was connected to the 40 mmHg saline manometer. The ocular hypertensive model reduced the ocular blood flow to approximately one third of the normal valued. 50 μl of 10 g/l flavone or vehicle (30% HP-β-CD solution) was instilled topically to the left eye 30 minutes after the ocular hypertensive model was built. The ocular blood flow was measured by colored microspheres at 0, 30, 60 and 120 minutes after treatment with the compounds or vehicle. At each time point, 2 million microspheres were injected as a reference, and blood samples were taken from the femoral artery for exactly one minute following injection of the microspheres. The blood sample was collected in a heparinized tube and the volume was recorded. The rabbits were euthanized with an injection of 100 mg/kg pentobarbital sodium after the last blood sampling. The left eyes were enucleated and dissected into the iris, ciliary body, retina and choroid. All the tissues were weighed.
The details of sample processing and microsphere counting were provided by E-Z Trac (Los Angeles, Calif., USA). In brief, the blood hemolysis reagent was added to the microfuge tubes with the blood sample, then vortexed and centrifuged for 30 minutes at 6000 rpm. The supernatant was removed, and then tissue/blood digest reagents I and II were added. The tubes were capped, vortexed, and centrifuged for 30 minutes. […] The number of microspheres was counted by the hemocytometer under the microscope. […] The protocol thereafter was the same as that used to process the blood samples, and the microspheres were counted.
The blood flow of each tissue at a certain time point was calculated according to the following formula: Qm=(Cm×Qr)/Cr. […]

Compound: CC(C)=CCC/C(C)=C/Cc1c([C@@H]2CC(=O)c3c(cc(O)c(CC=C(C)C)c3O)O2)ccc(O)c1O [Formula (II)]
- enhancement of NaN3-induced injury in HUVECs (HUVECs; 0.3 mM NaN3, 3 μg/ml compound): 75%
- enhancement of NaN3-induced injury in HUVECs (HUVECs; 0.3 mM NaN3, 10 μg/ml compound): 95%
- enhancement of NaN3-induced injury in HUVECs (HUVECs; 1 mM NaN3, 10 μg/ml compound): 75%
- enhancement of NaN3-induced injury in HUVECs (HUVECs; 3 mM NaN3, 3 μg/ml compound): 44%
- enhancement of NaN3-induced injury in HUVECs (HUVECs; 3 mM NaN3, 10 μg/ml compound): 71%
- blood flow in choroid [1]: significantly increased
- blood flow in iris [1]: significantly increased
